{
  "source": "patent US5691368A",
  "about": "“Substituted oxazolidine calpain and/or cathepsin B inhibitors” (Hoechst Marion Roussel, Inc., priority 1995, dated 1997)",
  "key": {"[1]": {"target": "calpain", "settings": "broken membrane preparations; cited from earlier work"}, "[2]": {"system": "proteolytic response to post-decapitation ischemia", "settings": "cited from earlier work"}, "[3]": {"system": "calpain", "settings": "cited from earlier work"}, "[4]": {"system": "rats", "settings": "cited from earlier work"}, "[5]": {"target": "Muscle and erythrocyte calpain", "experiment": "In Vitro Assay of Calpain (fluorometric, t-Boc-Val-Leu-Lys-7-amido-4-methyl-coumarin substrate)", "type": "biochemical", "settings": "In Vitro Calpain Inhibition", "protocol": "In Vitro Assay of Calpain in the Prescence of Calpain Inhibitors\nMuscle and erythrocyte calpain were assayed by a fluorometric procedure using t-Boc-Val-Leu-Lys-7-amido-4-methyl-coumarin as the substrate, Sasaki et al., J. Biol. Chem. 259, 12489-12494 (1984). The enzyme calpain is commercially available and may be purchased from Sigma. The assay buffer, pH, assay techniques and calculation of the inhibitory constant (Ki) are similar to those described by Mehdi et al., Biochem. Biophys. Res. Commun. 157, 1117-1123 (1988)."}, "[6]": {"system": "male spontaneously hypertensive rats", "experiment": "Neuroprotection in vivo, focal cerebral ischemia by permanent tandem occlusion of right middle cerebral artery and right common carotid artery", "design": "species or system rat (spontaneously hypertensive)", "protocol": "Neuroprotection In Vivo With MDL 104,903 In a Model of Focal Cerebral Ischemia\nFor example, twelve male spontaneously hypertensive rats were divided into two groups: a vehicle-treated group and a calpain inhibitor-treated groups (MDL 104,903; 4×30 mg/kg cumulative doses). Ischemia was induced by permanent tandem occlusion of the right middle cerebral artery and right common carotid artery. Animals were killed 24 hours after surgery, and quantitative measurements of infarction volumes were performed using standard histological techniques and quantitative image analysis."}, "[7]": {"settings": "individual animal, inhibitor-treated group, 4×30 mg/kg I.V., 24 hours after surgery, 30 mg/kg"}},
  "note": "Several values for one entry are separate records, joined by “and”; a condition that tells them apart may be missing. Equal entries are not always repeated. Where two headings read alike, the source gives them in different places. Where a SMILES comes first, the peptide text is derived from it. The star is where a group is joined. Cbz = O=C(OCc1ccccc1)*",
  "data": [
    {"compound": "CC(C)[C@H](NC(=O)OCc1ccccc1)C(=O)N[C@H](C=O)Cc1ccccc1", "note": "[Cbz-Val-Phe-H] (Cbz-Val-Phe-aldehyde)", "values": [
      {"measurement": "Ki for calpain", "setting": "[1]", "value": "low"},
      {"measurement": "proteolytic response to post-decapitation ischemia", "setting": "[2]", "value": "reduced"},
      {"measurement": "cell penetration", "setting": "[3]; inhibitor of calpain", "value": "cell-penetrating"},
      {"measurement": "Ki for calpain", "setting": "[3]; intact cell systems", "value": "low"},
      {"measurement": "reduction of infarction, edema, and calcium-activated proteolysis", "setting": "[4]; intravenous injections, cumulative doses of 30 mg/kg or 60 mg/kg", "value": "effective in reducing infarction, edema, and calcium-activated proteolysis"},
      {"measurement": "volumes of cerebral infarction", "setting": "[4]; rats, versus saline-treated or vehicle-treated control animals", "value": "significantly smaller"}
    ]},
    {"compound": "CCCC(=O)O[C@@H]1OCN(C(=O)[C@@H](NC(=O)OCc2ccccc2)C(C)C)[C@H]1Cc1ccccc1", "note": "[MDL 103,821, [4S-[3(R*),4α,5β]]-[1-[[5-butyryloxy)-4-(phenylmethyl)-3-oxazolidinyl]carbonyl]-2-methylpropyl]-carbamic acid, phenylmethyl ester]", "values": [
      {"measurement": "Ki", "setting": "[5]", "value": 1300, "unit": "nM"}
    ]},
    {"compound": "CCCCC(CC)C(=O)O[C@@H]1OCN(C(=O)[C@@H](NC(=O)OCc2ccccc2)C(C)C)[C@H]1Cc1ccccc1", "note": "(stereo partly drawn) [MDL 104,092, [4S-[3(R*),4α,5β]]-[1-[[5-(2-ethylhexanoyl-oxy)-4-(phenylmethyl)-3-oxazolidinyl]carbonyl]-2-methylpropyl]-carbamic acid, phenylmethyl ester]", "values": [
      {"measurement": "Ki", "setting": "[5]", "value": 300, "unit": "nM"}
    ]},
    {"compound": "CC(=O)O[C@@H]1OCN(C(=O)[C@@H](NC(=O)OCc2ccccc2)C(C)C)[C@H]1Cc1ccccc1", "note": "[MDL 104,860, [4S-[3(R*),4α,5β]]-[1-[[5-(acetyloxy)-4-(phenylmethyl)-3-oxazolidinyl]carbonyl]-2-methylpropyl]carbamic acid, phenylmethyl ester]", "values": [
      {"measurement": "Ki", "setting": "[5]", "value": 1450, "unit": "nM"}
    ]},
    {"compound": "CC(C)[C@H](NC(=O)OCc1ccccc1)C(=O)N1CO[C@@H](O)[C@@H]1Cc1ccccc1", "note": "[MDL 104,903, [4S-[3(R*),4α,5β]]-[1-[[5-hydroxy-4-(phenylmethyl)-3-oxazolidinyl]carbonyl]-2-methylpropyl]-carbamic acid, phenylmethyl ester]", "values": [
      {"measurement": "reduction in infarct volume", "setting": "[6]; 4×30 mg/kg I.V. doses via femoral vein at 2 hour intervals beginning 5 min. after initiation of ischemia, 24 hours after surgery", "value": 20.5, "unit": "%"},
      {"measurement": "% of Reduction (Percentage of Infarct Reduction)", "setting": "[6]; comparison of mean values with vehicle group, 4×30 mg/kg I.V.", "value": 20.24, "unit": "%"},
      {"measurement": "Brain Volume", "setting": "[6]; individual animal, inhibitor-treated group, 4×30 mg/kg I.V. at 2 hour intervals from 5 min after ischemia, 24 hours after surgery, 30 mg/kg", "value": "1307.52 mm^3 and 1309.36 mm^3 and 1257.24 mm^3 and 1313.62 mm^3 and 1333.44 mm^3 and 1326.46 mm^3"},
      {"measurement": "Infarct Vol. v. Brain Vol.", "setting": "[6]; [7]", "value": "12.61% and 14.14% and 13.59% and 10.07% and 10.93%"},
      {"measurement": "Infarct Volume", "setting": "[6]; [7]", "value": "164.94 mm^3 and 185.16 mm^3 and 170.84 mm^3 and 178.58 mm^3 and 134.28 mm^3 and 144.92 mm^3"},
      {"measurement": "Infarct Vol. v. Brain Vol., mean", "setting": "[6]; mean of inhibitor-treated group (animals 7-12), 4×30 mg/kg I.V., vehicle mean 15.66", "value": 12.49, "unit": "%"},
      {"measurement": "Infarct Volume, mean", "setting": "[6]; mean of inhibitor-treated group (animals 7-12), 4×30 mg/kg I.V., vehicle mean 205.14", "value": 163.12, "unit": "mm^3"},
      {"measurement": "Brain Volume, mean", "setting": "[6]; mean of inhibitor-treated group (animals 7-12), 4×30 mg/kg I.V., vehicle mean 1310.15", "value": 1307.94, "unit": "mm^3"},
      {"measurement": "Ki", "setting": "[5]", "value": 33, "unit": "nM"}
    ]},
    {"compound": "COc1ccc(CC(=O)O[C@@H]2OCN(C(=O)[C@@H](NC(=O)OCc3ccccc3)C(C)C)[C@H]2Cc2ccccc2)cc1", "note": "[MDL 105,236, [4S-[3(R*),4α,5β]]-[1-[[5-(4-methoxyphenyl-acetyloxy)--4-(phenylmethyl)-3-oxazolidinyl]carbonyl]-2-methylpropyl-1]-carbamic acid, phenylmethyl ester]", "values": [
      {"measurement": "Ki", "setting": "[5]", "value": 1100, "unit": "nM"}
    ]},
    {"compound": "CC(C)[C@@H](C(=O)N1CO[C@@H](O)[C@@H]1Cc1ccccc1)N(C)C(=O)OCc1ccccc1", "note": "[MDL 105,423, [4S-[3(R*),4α,5β]]-[1-[[5-hydroxy-4-(phenylmethyl-3-oxazolidinyl]carbonyl]-2-methylpropyl]methyl-carbamic acid, phenylmethyl ester]", "values": [
      {"measurement": "Ki", "setting": "[5]", "value": 2100, "unit": "nM"}
    ]},
    {"compound": "CCOC(=O)CCC(=O)O[C@@H]1OCN(C(=O)[C@@H](NC(=O)OCc2ccccc2)C(C)C)[C@H]1Cc1ccccc1", "note": "[MDL 105,608, [4S-[3(R*),4α,5β]]-[1-[[5-(ethylsuccinyloxy)-4-(phenylmethyl)-3-oxazolidinyl]carbonyl]-2-methylpropyl]-carbamic acid, phenylmethyl ester]", "values": [
      {"measurement": "Ki", "setting": "[5]", "value": 700, "unit": "nM"}
    ]},
    {"compound": "CC(C)[C@H](NC(=O)OCc1ccccc1)C(=O)N1CO[C@@H](OC(=O)N2CCOCC2)[C@@H]1Cc1ccccc1", "note": "[MDL 105,803, [4S-[3(R*),4α,5β]]-3-[3-methyl-1-oxo-2-[[(phenylmethoxy)carbonyl]amino]butyl]-4-(phenylmethyl)-5-oxazolidinyl ester, 4-morpholinecarboxylic acid]", "values": [
      {"measurement": "Ki", "setting": "[5]", "value": 2000, "unit": "nM"}
    ]},
    {"compound": "[4S-[3(R*),4α,5β]]-[1-[[5-(propionyloxy)-4-(phenylmethyl)-3-oxazolidinyl]carbonyl]-2-methylpropyl]-carbamic acid, phenylmethyl ester [MDL 105,387]", "values": [
      {"measurement": "Ki", "setting": "[5]", "value": 1200, "unit": "nM"}
    ]}
  ]
}
